pEC50, pIC50: −log10 of the molar value. Where two headings read alike, the source gives them in different places. Non-standard residues stand in square brackets, D forms with d. Residues, ends and D or L forms follow the SMILES beside them. Arg(NO2) = N=C(NCCC[C@H](N)C(=O)O)N[N+](=O)[O-]; Aib = CC(C)(N)C(=O)O

Data set [1] deals with BV2 microglia cells. Particulars: previously shown; cited from earlier work.
The next data set has as its system B-CLL cells. Description: Cytotoxicity on patient-derived B-CLL cells (MTS assay). Particulars: for Fold Change: CLL EC50 relative to COG056 (rev133) = 1.0. From the text:
FIG. 5A: Dose response curves for COG449 cytotoxicity on CLL cells from 4 leukemia patients. Human CLL cells were isolated from blood samples and assayed for COG449 cytotoxicity. […] FIG. 5B: Dose response curves for COG445 on CLL cells from 7 patients or normal B-cells from 5 patients. Human CLL cells and PBMC were isolated and assayed for cytotoxicity of COG445.
Blood from CLL patients was collected and CD5+/CD19+ CLL cells were isolated using the RosetteSep™ Human B-Cell Enrichment Cocktail, according to the manufacturer's instructions, and treated with COG compounds. Compounds were applied to B-CLL cells (2.5×10^5 cells/well in a 96 well plate), after which the cells were treated for 72 hours.
Normal B-cells from volunteers and B-CLL cells from patients are isolated using the RosetteSep™ Human B Cell Enrichment Cocktail according to the manufacturer's instructions. This method depletes whole blood of T cells, monocytes, and NK cells using a proprietary antibody cocktail that cross-links unwanted cells in human whole blood to multiple red blood cells (RBCs) forming immunorosettes. This increases the density of the unwanted (rosetted) cells, such that they pellet along with the free RBCs when centrifuged over a buoyant density medium such as Ficoll-Paque®. This leaves the highly enriched B-cell or B-CLL cells at the interface between Ficoll and the plasma. The antibodies in the cocktail contain […] and anti-CD16 antibodies to remove T cells, monocytes, and NK cells, respectively. The purity of these B-cell and B-CLL preparations is then determined by flow cytometry.
For cytotoxicity assays, 3×10^6 CLL cells/well are cultured in 24 well tissue culture plates in 1.5 mL of Hybridoma SFM™ (Gibco, Long Island, N.Y.) as described by Levesque et al. (2001, 2003). All cultures are incubated at 37° C., 5% CO2 in air.
On the technique in general: Formazan colour is commonly taken as a measure of viable cells.

The subject of data set [2] is BV2 microglia cells. Description: LPS-induced nitric oxide production in BV2 microglia cells. Type of data set: cell-based. Particulars: for pEC50: 50% suppression of nitric oxide release from BV2 cells following LPS stimulation. How it is done: FIG. 1. COG 112 inhibits LPS-induced production of inflammatory cytokines in BV2 microglia cells. Inhibition curves for COG112 in the production of NO (green squares), TNFα (red diamonds), and IL-6 (blue triangles) by BV2 microglia. Compounds were added to the final concentrations indicated on the graph along with 100 ng/mL of LPS. After 24 hours the media was removed and assayed by two-site ELISA (BioSource) and quantitated relative to a standard curve on the same plate.
FIG. 3. NO Inhibition curve for COG449. BV2 microglia were treated with COG449 at the final concentrations indicated on the graph, along with 100 ng/mL of LPS. After 24 hours the media was removed and assayed by two-site ELISA (BioSource) and quantitated relative to a standard curve on the same plate.
(§1) We also evaluated the various peptides for efficacy in suppressing nitric oxide production induced by LPS stimulation of BV2 microglia cells as a measure of anti-inflammatory activity as well as the maximum dose tolerated in mice (Table I and FIG. 6A). For the LPS assay, EC50 is the concentration of compound that caused a 50% suppression of nitric oxide release from BV2 cells following LPS stimulation. For mouse toxicity, MTD is the maximum dose of the compound that can be given by intravenous injection without causing deaths after 24 hrs. […] Coupling the ApoE domain to a protein transduction domain further enhanced the potency of the dimers.
Low passage BV2 microglial cell cultures are maintained in 10% HI (Heat Inactivated) FBS DMEM media (supplemented with MEM NEAA (Non-Essential Amino Acids), sodium pyruvate and Pen-Strep) and continuously cultured until needed. To determine the IC50 values for NO production, peptides are added to BV2 cultures in 1% HI FBS DMEM media (supplemented with MEM NEAA and sodium pyruvate) at a range of final assay concentrations from 1.0 μM in 2 fold dilutions to 7.8 nM followed immediately by addition of LPS (100 ng/mL final concentration) as previously described (Laskowitz et al. (2001) Exp Neurol, Vol. 167(1): 74-85). After incubating for 18±1 hours, conditioned media is removed for analysis of nitrite (the stable oxidation product of released nitric oxide) by the Griess colorimetric assay (Promega). Remaining cells are assayed for viability in an MTT assay (Promega) and the nitrite assay values are normalized for each concentration using the percent viability of cells in the MTT assay. […] Typically, the absence of LPS exposure to BV2 cells results in levels below the limit of detection in our assays. Similarly, addition of any of the peptides up to 25 μM without LPS results in undetectable NO levels.

The next data set concerns normal B-cells. Description: Cytotoxicity on normal B-cells from volunteers. Type of data set: cell-based, human. Particulars: normal B-cells from volunteers.
Data set [3] can be described thus: Mouse toxicity, maximum tolerated dose by intravenous injection. Particulars: in vivo, maximum dose by intravenous injection without deaths after 24 hrs.
Text: as §1

The nature of data set [4]: Pharmacokinetics of subcutaneously injected COG1410. Particulars: plasma, sc. How it is done: Male C57Bl/6 mice (20-24 g, Charles River, Raleigh, N.C.) are injected with a peptide dimer subcutaneously at a volume of 5 mL/kg in the scruff of the neck. Ten minutes before the desired timepoint, mice are anesthetized and at the desired timepoint blood is drawn by cardiac puncture. Blood from at least 4 mice is used for each timepoint with the samples collected at 5, 10, 15, 30, 45, 60, 90, 120, 180 and 240 minutes for the initial analysis. The samples are processed and the pharmacokinetic analysis is completed. […] In the event that the half life has not been reached, a repeat of the experiment is performed that uses one timepoint before the observed Tmax, a timepoint at the observed Tmax and timepoints extending long enough to adequately determine the half life based on extrapolation of the previous observations of clearance from the plasma. Analysis of three concentrations of the peptide dimer is also performed to determine if there is a dose dependent effect on the pharmacokinetic parameters.

The subject of a further data set is TNFα. Description: LPS-induced TNFα production in BV2 microglia. Type of data set: cell-based. Particulars: BV2 cells. How it is done: (§2) FIG. 1. […] Compounds were added to the final concentrations indicated on the graph along with 100 ng/mL of LPS. After 24 hours the media was removed and assayed by two-site ELISA (BioSource) and quantitated relative to a standard curve on the same plate.
(§3) A series of fusion peptides with COG133 conjugated to a PTD were prepared by chemical synthesis.

The test system of a further data set is BV2 cells. The data set can be described thus: LD50 of COG112 (safety window versus suppression in BV2 cells). It is filed as cell-based. How it is done:
We have previously shown that the addition of a protein transduction domain (PTD), such as an antennapedia peptide, to the apoE-mimetic COG133 peptide (LRVRLASHLRKLRKRLL (SEQ ID NO: 3)) enhances its anti-inflammatory activity. A series of fusion peptides with COG133 conjugated to a PTD were prepared by chemical synthesis.

The test system of the next data set is IL-6. Description: LPS-induced IL-6 production in BV2 microglia. It is filed as cell-based. Particulars: BV2 cells. How it is done:
as §2, §3

The mark [5] stands for this setting: read-out: CLL EC50, B-CLL cells from patients, 72 hours, MTS assay.

Text for normal B-cells: Normal B-cells from volunteers and B-CLL cells from patients are isolated using the RosetteSep™ Human B Cell Enrichment Cocktail according to the manufacturer's instructions. This method depletes whole blood of T cells, monocytes, and NK cells using a proprietary antibody cocktail that cross-links unwanted cells in human whole blood to multiple red blood cells (RBCs) forming immunorosettes. This increases the density of the unwanted (rosetted) cells, such that they pellet along with the free RBCs when centrifuged over a buoyant density medium such as Ficoll-Paque®. This leaves the highly enriched B-cell or B-CLL cells at the interface between Ficoll and the plasma. The antibodies in the cocktail contain anti-CD14, anti-CD2 and anti-CD16 antibodies to remove T cells, monocytes, and NK cells, respectively. The purity of these B-cell and B-CLL preparations is then determined by flow cytometry. Preparations typically average less than 2% CD3+ T-cells and less than 0.5% CD14+ monocytes. In the case of B-CLL cell isolation, we routinely obtain preparations that contain less than 1.5% normal CD19+/CD5− B-cells using this method.

Consider `CC(=O)N[C@@H](CC(C)C)C(=O)N[C@@H](CCCNC(=N)N)C(=O)N[C@H](C(=O)N[C@@H](CCCNC(=N)N)C(=O)N[C@@H](CC(C)C)C(=O)N[C@@H](C)C(=O)N[C@@H](CO)C(=O)NC(C)(C)C(=O)N[C@@H](CC(C)C)C(=O)N[C@@H](CCCCN)C(=O)N[C@@H](CCCNC(=N)N)C(=O)N[C@@H](CC(C)C)C(=O)N[C@@H](CCCNC(=N)N)C(=O)N[C@@H](CCCCN)C(=O)N[C@@H](CCCNC(=N)N[N+](=O)[O-])C(=O)N[C@@H](CC(C)C)C(=O)N[C@@H](CC(C)C)C(N)=O)C(C)C` [COG248, LRVRLAS(Aib)LKRLRK(nitroR)LL (SEQ ID NO: 4)] (Ac-LRVRLAS[Aib]LKRLRK[Arg(NO2)]LL-NH2), for which the “anti-inflammatory activity relative to COG133 in NO release assays” value with BV2 microglia cells [1] is on record as “improved anti-inflammatory activity”. The “Fold Change” value with B-CLL cells turned out to be 5.5. Moreover, the pEC50 is 5.64 with B-CLL cells (setting [5]) and 6.05 in the data set with BV2 microglia cells [2].

On to `CC(=O)N[C@@H](C)C(=O)N[C@@H](CO)C(=O)NC(C)(C)C(=O)N[C@@H](CC(C)C)C(=O)N[C@@H](CCCNC(=N)N)C(=O)N[C@@H](CCCCN)C(=O)N[C@@H](CC(C)C)C(=O)NC(C)(C)C(=O)N[C@@H](CCCCN)C(=O)N[C@@H](CCCNC(=N)N)C(=O)N[C@@H](CC(C)C)C(=O)N[C@@H](CC(C)C)C(N)=O` [COG1410, AS(Aib)LRKL(Aib)KRLL (SEQ ID NO: 5)] (Ac-AS[Aib]LRKL[Aib]KRLL-NH2; N-terminus and C-terminus assumed), for which, in the data set with normal B-cells, the pEC50 was less than 4.70. In [3], the MTD at 24 h is 15 mg/kg. In data set [4], the Tmax lay within 20 to 30 min and the half-life is 60 to 90 min. Also, the pEC50 in the data set with B-CLL cells (read-out: EC50 anti-CLL cytotoxic activity, B-CLL cells) is 5.24.

“Ac-RQIKIWFQNRRMKWKKCLRVRLASHLRKLRKRLL-NH2 [COG112, RQIKIWFQNRRMKWKK-C-LRVRLASHLRKLRKRLL (SEQ ID NO: 1)]”: the pIC50 in the data set on TNFα is 7.24; in the data set on IL-6 it was 7.92; in the data set on BV2 microglia cells [2] (BV2 cells, LPS 100 ng/mL, read-out: IC50 for NO production/release), 7.68. Moreover, the pEC50 in the data set with normal B-cells is less than 4.70; in the data set on B-CLL cells (setting [5]) it was 5.85; with BV2 microglia cells [2], more than 6.00. The same compound returned an LD50 with BV2 cells of 7 µM. In addition, the “safety window, LD50 versus effective suppression concentrations” value in the data set on BV2 cells (versus 12-58 nM) was more than 120 fold. Also, in [3], the MTD at 24 h worked out at 28 mg/kg. Also, in the data set with B-CLL cells, the “Fold Change” value stood at 9.2.

As usually defined, the pEC50 is the negative decadic logarithm of the EC50, by convention in mol/L. One may read the MTD as the highest dose tested that stayed within the study's limit of toxicity. The Tmax is the time from dosing to the highest level. Usually half-life stands for the time needed for the level to fall by half in the phase considered. Low readings indicate rapid decline, high ones slow decline.
